We go through twelve compounds from patent publication US20190071416A1, “COMPOUNDS FOR TREATMENT OF CANCER AND EPIGENETICS” (Agency For Science, Technology and Research, priority 2015, published 2019).

By IC50 is commonly meant the concentration at which inhibition is half-maximal.

For the first assay, the target named is T1, SMYD3 (Homo sapiens, UniProt Q9H7B4).
T1 sequence (Q9H7B4 1-428): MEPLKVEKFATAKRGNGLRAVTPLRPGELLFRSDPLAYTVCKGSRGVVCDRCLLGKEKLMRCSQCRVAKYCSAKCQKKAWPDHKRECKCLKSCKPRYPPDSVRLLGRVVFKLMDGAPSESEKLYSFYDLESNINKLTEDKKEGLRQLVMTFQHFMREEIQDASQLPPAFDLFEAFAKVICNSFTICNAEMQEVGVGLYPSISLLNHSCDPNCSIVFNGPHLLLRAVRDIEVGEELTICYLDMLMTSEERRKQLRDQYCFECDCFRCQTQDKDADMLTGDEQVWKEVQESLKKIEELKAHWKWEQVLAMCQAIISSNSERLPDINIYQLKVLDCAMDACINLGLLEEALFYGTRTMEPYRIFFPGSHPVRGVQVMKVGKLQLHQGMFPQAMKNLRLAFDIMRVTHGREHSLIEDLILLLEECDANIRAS
Nature of the assay: SMYD3 biochemical assay (MTase-Glo, MAP3K2 peptide substrate).
Details: not given
The procedure, abridged: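 Luminescent readout of SAH production (coupled SAH→ATP conversion, MTase-Glo) after SMYD3 reacted 30 min at room temperature with 1.0 µM SAM and 10 µM MAP3K2 peptide, both final. Non-linear regression gave IC50 values.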
Regarding `NC(=O)C1CCN(CC(=O)Nc2ccc(Br)cc2)CC1` [X1, reference compound], the “activity against SMYD3” value is “inactive”.

The same assay, now with this note: Table 3; MTase assay, MAP3K2 peptide substrate; read-out: IC50.
As for `C[C@@H]1CN(C(=O)c2ccc3c(Cl)cc(-c4ccn(C)c4)nc3c2)CCN1C(=O)c1cn(C2CC2)nn1` [D004, (R)-(4-Chloro-2-(1-methyl-1H-pyrrol-3-yl)quinolin-7-yl)(4-(1-cyclopropyl-1H-1,2,3-triazole-4-carbonyl)-3-methylpiperazin-1-yl)methanone], the IC50 was found to be 0.013 µM.

Take `C[C@@H]1CN(C(=O)c2ccc3c(Cl)cc(-c4ccccc4)nc3c2)CCN1C(=O)c1cn(C2CC2)nn1` [D005, (R)-(4-Chloro-2-phenylquinolin-7-yl)(4-(1-cyclopropyl-1H-1,2,3-triazole-4-carbonyl)-3-methylpiperazin-1-yl)methanone]: the IC50 is 0.077 µM.

`C[C@@H]1CN(C(=O)c2ccc3c(Cl)cc(-c4ccc(C(C)(C)O)cc4)nc3c2)CCN1C(=O)c1cn(C2CC2)nn1` [D006, (R)-(4-Chloro-2-(4-(2-hydroxypropan-2-yl)phenyl)quinolin-7-yl)(4-(1-cyclopropyl-1H-1,2,3-triazole-4-carbonyl)-3-methylpiperazin-1-yl)methanone]: the IC50 stood at 0.052 µM.

For `Cn1cc(C(=O)N2CCN(C(=O)c3ccc4c(Cl)cc(-c5ccccc5)nc4c3)CC2)nn1` [D007, (4-Chloro-2-phenylquinolin-7-yl)(4-(1-methyl-1H-1,2,3-triazole-4-carbonyl)piperazin-1-yl)methanone], the IC50 came to 0.083 µM.

In the case of `CC(C)(C)n1cc(C(=O)N2CCN(C(=O)c3ccc4c(Cl)cc(-c5ccccc5)nc4c3)CC2)nn1` [D008, (1-(Tert-butyl)-1H-1,2,3-triazol-4-yl)(4-(4-chloro-2-phenylquinoline-7-carbonyl)piperazin-1-yl)methanone], the IC50 was 0.45 µM.

In the case of `O=C(c1ccc2c(Cl)cc(-c3ccccc3)nc2c1)N1CCN(C(=O)c2cnn(C3CC3)c2)CC1` [D011, (4-Chloro-2-phenylquinolin-7-yl)(4-(1-cyclopropyl-1H-pyrazole-4-carbonyl)piperazin-1-yl)nethanone], the IC50 was 0.2 µM.

In the case of `CC(C)(CN)c1ccc(-c2cc(Cl)c3ccc(C(=O)N4CCN(C(=O)c5cn(C6CC6)nn5)CC4)cc3n2)cc1` [D012, (2-(4-(1-Amino-2-methylpropan-2-yl)phenyl)-4-chloroquinolin-7-yl)(4-(1-cyclopropyl-1H-1,2,3-triazole-4-carbonyl)piperazin-1-yl)nethanone], the IC50 came to 0.1 µM.

Consider `NC1(c2ccc(-c3cc(Cl)c4ccc(C(=O)N5CCN(C(=O)c6cn(C7CC7)nn6)CC5)cc4n3)cc2)CC1` [D013, (2-(4-(1-Aminocyclopropyl)phenyl)-4-chloroquinolin-7-yl)(4-(1-cyclopropyl-1H-1,2,3-triazole-4-carbonyl)piperazin-1-yl)methanone], for which the IC50 was 0.078 µM.

With `COc1ccc(-c2cc(Cl)c3ccc(C(=O)N4CCN(C(=O)c5cn(C6CC6)nn5)CC4)cc3n2)cc1CN` [D014, (2-(3-(Aminomethyl)-4-methoxyphenyl)-4-chloroquinolin-7-yl)(4-(1-cyclopropyl-1H-1,2,3-triazole-4-carbonyl)piperazin-1-yl)methanone], the IC50 came to 0.069 µM.

On to `NCc1cc(-c2cc(Cl)c3ccc(C(=O)N4CCN(C(=O)c5cn(C6CC6)nn5)CC4)cc3n2)ccc1F` [E019, (2-(3-(Aminomethyl)-4-fluorophenyl)-4-chloroquinolin-7-yl)(4-(1-cyclopropyl-1H-1,2,3-triazole-4-carbonyl)piperazin-1-yl)methanone], for which the IC50 stood at 0.039 µM.

Regarding `CN(C)Cc1cc(-c2cc(Cl)c3ccc(C(=O)N4CCN(C(=O)c5cn(C6CC6)nn5)CC4)cc3n2)ccc1F` [E020, (4-Chloro-2-(3-((dimethylamino)methyl)-4-fluorophenyl)quinolin-7-yl)(4-(1-cyclopropyl-1H-1,2,3-triazole-4-carbonyl)piperazin-1-yl)methanone], the IC50 was determined as 0.058 µM.

The assay is the same for the next values; noted with them: Table 4; prior art compounds; read-out: IC50.
Take `NC(=O)C1CCN(CC(=O)Nc2ccc(Br)cc2)CC1` [X1, reference compound]: the IC50 was greater than 250 µM.
